Test system: 301 cancer cell lines from different tumor types
Experiment: 2D cell viability inhibition assay, broad cancer cell line panel (OncoPanel; CellTiter-Glo)
Assay type: cell-based
Design: key to Emax: % of DMSO control (minimum response over dose range); AUC: scale not given here
Details: for AUC / Emax: 168 hours; for Emax: in % (unit assumed)
Method: In a larger screening study, compound 1 was evaluated across a broad cancer cell line panel (OncoPanel; HD Biosciences) composed of 301 cancer cell lines from different tumor types.
2D cell viability inhibition assays were performed in multiwell plates seeded with cells from the panel. After seeding, the plates were cultured overnight in a humidified incubator at 37° C. to promote adherence. Assays were initiated in individual wells by adding either DMSO as a vehicle control, growth media as a blank, or serially diluted compound 1 (10 μM to 0.0005 μM with 1:3 serial dilution). Cultures were incubated for 168 hours after which the number of viable cells in each test well was assessed using the CellTiter-Glo® Luminescent Cell Viability Assay. Luminescence readouts were performed using an EnVision® Multilabel Reader and the compound 1 readouts were normalized to the DMSO control readouts, expressed as a percent of the control. Outliers were flagged out by visual inspection. Percent of control was plotted against the corresponding compound 1 concentration and the absolute IC50 value was determined using four-parameter logistic non-linear regression as the concentration where inhibition was 50% of the control. […] Emax was recorded as the minimum in y with the compound dose range. […] The sensitive/moderate/resistant calls for each cell line was determined by visually inspecting the resulting clustering dendrogram. All the analyses were done in R Core Team.

[1] = 168 h, HUH28 (biliary tract, NS)
[2] = 168 h, KG1 (haematopoietic and lymphoid tissue, acute myeloid leukaemia)
[3] = 168 h, KURAMOCHI (ovary, undifferentiated carcinoma)
[4] = 168 h, NMCG1 (central nervous system, NS)
[5] = 168 h, T24 (urinary tract, transitional cell carcinoma)
[6] = 168 h, TE1 (oesophagus, squamous cell carcinoma)
[7] = 168 h, TE8 (oesophagus, squamous cell carcinoma)
[8] = BT20 (breast, ductal carcinoma)
[9] = BT474 (breast, ductal carcinoma)
[10] = C2BBE1 (large intestine, adenocarcinoma)
[11] = CAL27 (upper aerodigestive tract, squamous cell carcinoma)
[12] = CALU1 (lung, squamous cell carcinoma)
[13] = CAPAN2 (pancreas, ductal carcinoma)
[14] = CCFSTTG1 (central nervous system, astrocytoma)
[15] = DAOY (central nervous system, NS)
[16] = DMS53 (lung, small cell carcinoma)
[17] = HCC38 (breast, ductal carcinoma)
[18] = HCC1419 (breast, ductal carcinoma)
[19] = HCC1937 (breast, ductal carcinoma)
[20] = Homo sapiens, A204, 168 h, A204 (soft tissue, NS)
[21] = Homo sapiens, BT-20, 168 h, BT20 (breast, ductal carcinoma)
[22] = Homo sapiens, BT-474, 168 h, BT474 (breast, ductal carcinoma)
[23] = Homo sapiens, C2BBe1, 168 h, C2BBE1 (large intestine, adenocarcinoma)
[24] = Homo sapiens, CAL-27, 168 h, CAL27 (upper aerodigestive tract, squamous cell carcinoma)
[25] = Homo sapiens, CCF-STTG1, 168 h, CCFSTTG1 (central nervous system, astrocytoma)
[26] = Homo sapiens, Calu-1, 168 h, CALU1 (lung, squamous cell carcinoma)
[27] = Homo sapiens, Calu-3, 168 h, CALU3 (lung, adenocarcinoma)
[28] = Homo sapiens, Capan-2, 168 h, CAPAN2 (pancreas, ductal carcinoma)
[29] = Homo sapiens, DMS-53, 168 h, DMS53 (lung, small cell carcinoma)
[30] = Homo sapiens, Daoy, 168 h, DAOY (central nervous system, NS)
[31] = Homo sapiens, G-361, 168 h, G361 (skin, NS)
[32] = Homo sapiens, HCC38, 168 h, HCC38 (breast, ductal carcinoma)
[33] = Homo sapiens, HCC827, 168 h, HCC827 (lung, adenocarcinoma)
[34] = Homo sapiens, HCC1419, 168 h, HCC1419 (breast, ductal carcinoma)
[35] = Homo sapiens, HCC1428, 168 h, HCC1428 (breast, NS)
[36] = Homo sapiens, HCC1937, 168 h, HCC1937 (breast, ductal carcinoma)
[37] = Homo sapiens, HT-144, 168 h, HT144 (skin, NS)
[38] = Homo sapiens, Hs 695T, 168 h, HS695T (skin, NS)
[39] = Homo sapiens, KYSE-70, 168 h, KYSE70 (oesophagus, squamous cell carcinoma)
[40] = Homo sapiens, Kasumi 1, 168 h, KASUMI1 (haematopoietic and lymphoid tissue, acute myeloid leukaemia)
[41] = Homo sapiens, Lu-99, 168 h, LU99 (lung, large cell carcinoma)
[42] = Homo sapiens, MDA-MB-157, 168 h, MDAMB157 (breast, ductal carcinoma)
[43] = Homo sapiens, MDA-MB-175-VII, 168 h, MDAMB 175 VII (breast, ductal carcinoma)
[44] = Homo sapiens, MDA-MB-231, 168 h, MDAMB231 (breast, NS)
[45] = Homo sapiens, MDA-MB-361, 168 h, MDAMB361 (breast, NS)
[46] = Homo sapiens, MDA-MB-415, 168 h, MDAMB415 (breast, NS)
[47] = Homo sapiens, MDA-MB-436, 168 h, MDAMB436 (breast, NS)
[48] = Homo sapiens, MDA-MB-468, 168 h, MDAMB468 (breast, NS)
[49] = Homo sapiens, Malme-3M, 168 h, MALME3M (skin, NS)
[50] = Homo sapiens, MeWo, 168 h, MEWO (skin, NS)
[51] = Homo sapiens, NCI-H441, 168 h, NCIH441 (lung, adenocarcinoma)
[52] = Homo sapiens, NCI-H596, 168 h, NCIH596 (lung, mixed adenosquamous carcinoma)
[53] = Homo sapiens, NCI-H1395, 168 h, NCIH1395 (lung, adenocarcinoma)
[54] = Homo sapiens, NCI-H1563, 168 h, NCIH1563 (lung, adenocarcinoma)
[55] = Homo sapiens, NCI-H1573, 168 h, NCIH1573 (lung, adenocarcinoma)

Structure (SMILES): CC(C)c1ccc(N(C)c2ccc3c(c2)OCC[C@H]3CNc2cnccc2C(=O)O)cc1 [Compound 1, 3-({[(4R)-7-{methyl[4-(propan-2-yl)phenyl]amino}-3,4-dihydro-2H-1-benzopyran-4-yl]methyl}amino)pyridine-4-carboxylic acid]
- EC50 (168 h, HS688AT (skin, NS)): ≥ 10 µM
- IC50 (168 h, HS688AT (skin, NS)): ≥ 10 µM
- EC50 (168 h, HS739T (breast, NS)): ≥ 10 µM
- IC50 (168 h, HS739T (breast, NS)): ≥ 10 µM
- EC50 (168 h, HS839T (skin, NS)): ≥ 10 µM
- IC50 (168 h, HS839T (skin, NS)): ≥ 10 µM
- EC50 (168 h, HS852T (skin, NS)): ≥ 10 µM
- IC50 (168 h, HS852T (skin, NS)): ≥ 10 µM
- EC50 [1]: ≥ 10 µM
- IC50 [1]: ≥ 10 µM
- EC50 [2]: ≥ 10 µM
- IC50 [2]: ≥ 10 µM
- EC50 [3]: ≥ 10 µM
- IC50 [3]: ≥ 10 µM
- EC50 [4]: ≥ 10 µM
- IC50 [4]: ≥ 10 µM
- EC50 (168 h, SKMEL31 (skin, NS)): ≥ 10 µM
- IC50 (168 h, SKMEL31 (skin, NS)): ≥ 10 µM
- EC50 [5]: ≥ 10 µM
- IC50 [5]: ≥ 10 µM
- EC50 [6]: ≥ 10 µM
- IC50 [6]: ≥ 10 µM
- EC50 [7]: ≥ 10 µM
- IC50 [7]: ≥ 10 µM
- AUC (A204 (soft tissue, NS)): 0.7136
- Emax (A204 (soft tissue, NS)): 58.91
- AUC [8]: 0.9117
- Emax [8]: 78.79
- AUC [9]: 0.7206
- Emax [9]: 53.88
- AUC [10]: 0.8303
- Emax [10]: 59.34
- AUC [11]: 0.8335
- Emax [11]: 74.68
- AUC [12]: 1.217
- Emax [12]: 118.4694
- AUC (CALU3 (lung, adenocarcinoma)): 0.7277
- Emax (CALU3 (lung, adenocarcinoma)): 50.88
- AUC [13]: 0.8808
- Emax [13]: 75.02
- AUC [14]: 0.879
- Emax [14]: 78.9
- AUC [15]: 0.9684
- Emax [15]: 83.4
- AUC [16]: 0.7426
- Emax [16]: 49.07
- AUC (G361 (skin, NS)): 1.044
- Emax (G361 (skin, NS)): 89.52
- AUC [17]: 0.9864
- Emax [17]: 93.61
- AUC (HCC827 (lung, adenocarcinoma)): 0.8814
- Emax (HCC827 (lung, adenocarcinoma)): 74.84
- AUC [18]: 0.7201
- Emax [18]: 52.42
- AUC (HCC1428 (breast, NS)): 0.7818
- Emax (HCC1428 (breast, NS)): 59.9889
- AUC [19]: 0.9094
- Emax [19]: 80.9493
- AUC (HS688AT (skin, NS)): 1.105
- Emax (HS688AT (skin, NS)): 98.47
- AUC (HS695T (skin, NS)): 0.9238
- Emax (HS695T (skin, NS)): 74.11
- AUC (HS739T (breast, NS)): 0.8686
- Emax (HS739T (breast, NS)): 78.35
- AUC (HS839T (skin, NS)): 1.097
- Emax (HS839T (skin, NS)): 101.2434
- AUC (HS852T (skin, NS)): 0.883
- Emax (HS852T (skin, NS)): 78.51
- AUC (HT144 (skin, NS)): 0.8912
- Emax (HT144 (skin, NS)): 81.61
- AUC (HUH28 (biliary tract, NS)): 0.9862
- Emax (HUH28 (biliary tract, NS)): 92.15
- EC50 [20]: ≥ 10 µM
- IC50 [20]: ≥ 10 µM
- EC50 [21]: ≥ 10 µM
- IC50 [21]: ≥ 10 µM
- EC50 [22]: ≥ 10 µM
- IC50 [22]: ≥ 10 µM
- EC50 [23]: ≥ 10 µM
- IC50 [23]: ≥ 10 µM
- EC50 [24]: ≥ 10 µM
- IC50 [24]: ≥ 10 µM
- EC50 [25]: ≥ 10 µM
- IC50 [25]: ≥ 10 µM
- EC50 [26]: ≥ 10 µM
- IC50 [26]: ≥ 10 µM
- EC50 [27]: ≥ 10 µM
- IC50 [27]: ≥ 10 µM
- EC50 [28]: ≥ 10 µM
- IC50 [28]: ≥ 10 µM
- EC50 [29]: ≥ 10 µM
- IC50 [29]: ≥ 10 µM
- EC50 [30]: ≥ 10 µM
- IC50 [30]: ≥ 10 µM
- EC50 [31]: ≥ 10 µM
- IC50 [31]: ≥ 10 µM
- EC50 [32]: ≥ 10 µM
- IC50 [32]: ≥ 10 µM
- EC50 [33]: ≥ 10 µM
- IC50 [33]: ≥ 10 µM
- EC50 [34]: ≥ 10 µM
- IC50 [34]: ≥ 10 µM
- EC50 [35]: ≥ 10 µM
- IC50 [35]: ≥ 10 µM
- EC50 [36]: ≥ 10 µM
- IC50 [36]: ≥ 10 µM
- EC50 [37]: ≥ 10 µM
- IC50 [37]: ≥ 10 µM
- EC50 [38]: ≥ 10 µM
- IC50 [38]: ≥ 10 µM
- EC50 [39]: ≥ 10 µM
- IC50 [39]: ≥ 10 µM
- EC50 [40]: ≥ 10 µM
- IC50 [40]: ≥ 10 µM
- EC50 [41]: ≥ 10 µM
- IC50 [41]: ≥ 10 µM
- EC50 [42]: ≥ 10 µM
- IC50 [42]: ≥ 10 µM
- EC50 [43]: ≥ 10 µM
- IC50 [43]: ≥ 10 µM
- EC50 [44]: ≥ 10 µM
- IC50 [44]: ≥ 10 µM
- EC50 [45]: ≥ 10 µM
- IC50 [45]: ≥ 10 µM
- EC50 [46]: ≥ 10 µM
- IC50 [46]: ≥ 10 µM
- EC50 [47]: ≥ 10 µM
- IC50 [47]: ≥ 10 µM
- EC50 [48]: ≥ 10 µM
- IC50 [48]: ≥ 10 µM
- EC50 [49]: ≥ 10 µM
- IC50 [49]: ≥ 10 µM
- EC50 [50]: ≥ 10 µM
- IC50 [50]: ≥ 10 µM
- EC50 [51]: ≥ 10 µM
- IC50 [51]: ≥ 10 µM
- EC50 [52]: ≥ 10 µM
- IC50 [52]: ≥ 10 µM
- EC50 [53]: ≥ 10 µM
- IC50 [53]: ≥ 10 µM
- EC50 [54]: ≥ 10 µM
- IC50 [54]: ≥ 10 µM
- EC50 [55]: ≥ 10 µM
- IC50 [55]: ≥ 10 µM

Reference: US20250025451A1, “TREATMENT OF CANCER WITH KDM4 INHIBITORS” (Celgene Corporation, priority 2021, published 2025)
